# Assay results from patent US11970469B2 (Oxford University Innovation Limited, priority 2018, dated 2024).
# Columns and labels:
# [1] = test system: DLD1 cells (ATCC CCL-221); assay: Cell viability assay, DLD-1 (CellTiter-Glo); assay type: cell-based; conditions: DLD-1 cells; for effect on DLD-1 viability over the range of concentrations: 72 hour, 5, 10, 15, 20 μM (FIG. 1); for IC50: Homo sapiens, 72 h, dose response 5, 10, 15, 20 μM
# Method: DLD1 cells (ATCC CCL-221) are cultured in RPMI-1640 medium plus 10% foetal calf serum and 2 mM L-glutamine at 37° C. 5% CO2. Cells are plated onto white clear bottom 96-well plates (5000 cells/well in 200 μl media) and left to adhere overnight at 37° C., 5% CO2. Next day, test compound (1 μl at 200× concentration in 100% DMSO) is added to give final test compound concentration 1× in 0.5% DMSO. After 72 h of incubation at 37° C. 5% CO2, 20 μl CellTiter-Glo reagent (Promega G7572) is added into each well. Plates are incubated at room temperature with shaking for 30 min and then luminescence is read using a PheraStar plate reader. The concentration of compounds that decrease cell viability by 50% is calculated from dose response curves generated using Dotmatics data analysis software Results
# RASG12D/CRAF FL = assay: BRET2 cell assay with BRET-based RAS biosensor (RAS-effector) in HEK293T; conditions: 10 uM compound, 20 hours
# Method: 650,000 HEK293T were seeded in each well of a 6 well plate. 24 hours later, cells were transfected with an appropriated BRET-based RAS biosensor (i.e. RAS-effector) using Lipofectamine 2000 transfection reagent (Thermo-Fisher). Cells were detached 24 hours later and washed with PBS and seeded in a white 96 well plate (clear bottom, PerkinElmer, cat #6005181) in OptiMEM no phenol red medium (Life Technologies) complemented with 4% FBS. Cells were left for 4 hours at 37° C. before adding compounds. Stock compounds were held at 10 mM in 100% DMSO and diluted in OptiMEM no red phenol+4% FBS to reach 10× the final concentration (2% DMSO for each concentration). The final concentrations in the cells were 0, 5, 10 and 20 μM (therefore the intermediate 10× concentrations were 0, 50, 100 and 200 μM. 10 μL of 10× compounds were added in each well of the 96 well plate to 0, 5, 10 and 20 μM final concentrations (with final 0.2% DMSO each). Quadruplicates were performed for each point. Cells were left for an additional 20 hours at 37° C. before the BRET2 signal reading directly after addition of Coelenterazine 400a substrate (10 μM final) to cells (Cayman Chemicals, cat #16157). BRET2 reading was carried out on an Envision instrument (2103 Multilabel Reader, PerkinElmer) with the BRET2 Dual Emission optical module (515 nm±30 and 410 nm±80; PerkinElmer).
# [2] = target: GST-human KRas166 (G12V) GPPNHP (Homo sapiens, UniProt P01116, G12V); assay: KRas small-molecule screening by SPR (BIACORE T200); assay type: binding; set-up: made in house; host or cells: E. coli C41(DE3); key: SPR response units (RU); conditions: compounds at final concentration of 100 uM; immobilised KRAS166 (G12V) GPPNHP; no unit printed (method speaks of response units)
# Method: For SPR assays pGEX-KRAS(G12V) plasmid was transformed into E. coli C41(DE3). Bacterial cells were cultured at 37° C. to an OD600 of 0.6 and induced with IPTG (final 0.1 mM) at 18° C. over night. The GST fusion proteins were extracted from bacteria pellets after cell disruption in 140 mM NaCl, 2.7 mM KCl, 10 mM NaH2PO4, 1.8 mM KH2PO4, 1 mM EDTA, 2 mM MgCl2 pH 7.4 and purified by glutathione-sepharose column chromatography (GE Healthcare), eluting with 50 mM Tris-HCl pH8.0, 10 mM reduced glutathione, 1 mM DTT, 2 mM MgCl2. The eluted proteins were dialysed against 50 mM Tris-HCl pH8.0, 1 mM DTT, 2 mM MgCl2 and concentrated to 10 mg/ml using a Biomax-30 ULTRAFREE-15 centrifugal filter device (Millipore). Purified KRAS protein was loaded with GPPNHP as described elsewhere (Pacold et al., 2000). Loaded protein was then purified by gel filtration on a HiLoad Superdex-75 HR column (GE Healthcare) in 1×PBS pH7.4, 5 mM MgCl2 and concentrated for storage. Protocol for KRas small-molecule screening and affinity measurements by SPR
# To a previously immobilized CM5 chip (GE Healthcare BR-1005-30) with anti GST antibody via amine coupling method, GST in channel 1 and GST-human KRas166 (G12V) GPPNHP in channel 2 were immobilised. GST was immobilised between 2,000 and 5,000 Response units. KRAS166 (G12V) was immobilized between 10,000 to 15,000 Response Units.
# In a 96 well plate, compounds were diluted in […], 5 mM MgCl2 and 5% DMSO Buffer to a final concentration of 100 uM. DCAI was used as positive control. Experiment also included a solvent correction curve for 5% DMSO. Screening and evaluation of the protein immobilization and the compounds screening was done accordingly to the BIACORE T200 control and evaluation software.
# Calculations for how many response units are required for a 1:1 ratio of compound/protein interaction are shown below. • Protein immobilisation: 10,000 RU; average fragment 300 Da in size. Rmax=(MWA/MWL)×RL×SM • MWA is the molecular weight of the analyte in Da • MWL is the molecular weight of the ligand in Da • RL is the immobilization level in RU • SM is the molar stoichiometry (assume 1:1) • Rmax=300/47,500×10,000×1 • Rmax=63 RU. BRET2 Cell Assay
IC50 [1] [µM],SPR [2],Compound,effect on DLD-1 viability over the range of concentrations [1],BRET RASG12D/CRAF FL % Inhibition (10 uM) (RASG12D/CRAF FL) [%]
,30,"COc1cccc(-c2ccc(Nc3cc(C)cc(C)c3)c(OC)c2F)c1 [Example 8, N-(3,5-dimethylphenyl)-2-fluoro-3,3′-dimethoxy-[1,1′-biphenyl]-4-amine]",,0
,28,"COc1cccc(-c2ccc(Nc3cc(C)cc(C)c3)cc2)c1 [Example 9, N-(3,5-dimethylphenyl)-3′-methoxy-[1,1′-biphenyl]-4-amine]",,2
,28,"COc1cccc(-c2ccc(Nc3cc(C(=O)N(C)C)ccc3C)cc2)c1 [Example 10, 3-((3′-methoxy-[1,1′-biphenyl]-4-yl)amino)-N,N,4-trimethylbenzamide]",,0
,69,"COc1cccc(-c2ccc(Nc3cc(CN(C)C)ccc3C)cc2)c1 [Example 11, N-(5-((dimethylamino)methyl)-2-methylphenyl)-3′-methoxy-[1,1′-biphenyl]-4-amine]",,1
,55,"COc1cccc(-c2ccc(Nc3cccc(CN4CC(C)OC(C)C4)c3)cc2)c1 (centres unmarked) [Example 12, N-(3-((2,6-dimethylmorpholino)methyl)phenyl)-3′-methoxy-[1,1′-biphenyl]-4-amine]",,0
,152,"COc1cccc(-c2ccc(Nc3ccc(CN(C)C)cc3)c(OC)n2)c1 [Example 14, N-(4-((dimethylamino)methyl)phenyl)-2-methoxy-6-(3-methoxyphenyl)pyridin-3-amine]",,42
,84,"COc1cccc(-c2ccc(Nc3cccc(CN(C)C)c3)c(OC)n2)c1 [Example 15, N-(3-((dimethylamino)methyl)phenyl)-2-methoxy-6-(3-methoxyphenyl)pyridin-3-amine]",,35
,209,"COc1cccc(-c2ccc(Nc3ccc(CN(C)C)cc3)cn2)c1 [Example 16, N-(4-((dimethylamino)methyl)phenyl)-6-(3-methoxyphenyl)pyridin-3-amine]",,0
,396,"COc1cccc(-c2ccc(Nc3cccc(C(=O)NCC4CCNCC4)c3)cc2)c1 [Example 17, 3-((3′-methoxy-[1,1′-biphenyl]-4-yl)amino)-N-(piperidin-4-ylmethyl)benzamide]",,
,119,"COc1cc(-c2ccc(Nc3ccc(CN(C)C)cc3)cc2)ccc1C [Example 18, N-(4-((dimethylamino)methyl)phenyl)-3′-methoxy-4′-methyl-[1,1′-biphenyl]-4-amine]",,13
,1426,"COc1cccc(-c2ccc(Nc3ccc(C(=O)NCC4CCNCC4)cc3)cc2)c1 [Example 20, 4-((3′-methoxy-[1,1′-biphenyl]-4-yl)amino)-N-(piperidin-4-ylmethyl)benzamide]",,
,1583,"COc1cccc(-c2ccc(Nc3ccc(C(=O)NCC4CCN(C)CC4)cc3)cc2)c1 [Example 21, 4-((3′-methoxy-[1,1′-biphenyl]-4-yl)amino)-N-((1-methylpiperidin-4-yl)methyl)benzamide]",,
,99,"COc1cccc(-c2ccc(Nc3ccc(C(=O)NCC4CCN(Cc5ccccc5)CC4)cc3)cc2)c1 [Example 23, N-((1-benzylpiperidin-4-yl)methyl)-4-((3′-methoxy-[1,1′-biphenyl]-4-yl)amino)benzamide]",,

# The next lines start with the compound.
Compound,IC50 [1] [µM],SPR [2],effect on DLD-1 viability over the range of concentrations [1],BRET RASG12D/CRAF FL % Inhibition (10 uM) (RASG12D/CRAF FL) [%]
"O=C(NCC1COc2ccccc2O1)c1ccco1 (centres unmarked) [Abd-2, reference compound]",,,does not affect DLD-1 viability,
"COc1nc(-c2cccc3c2OCCO3)ccc1Nc1ccc(CN(C)C)cc1 [Abd-7, reference compound]",8.2,,,
"COc1cccc(-c2ccc(Nc3ccc(CN(C)C)cc3)cc2)c1 [Example 1, N-(4-((dimethylamino)methyl)phenyl)-3′-methoxy-[1,1′-biphenyl]-4-amine]",5.3,230,,24
"COc1cccc(-c2ccc(Nc3ccc(CN(C)C)cc3)c(OC)c2)c1 [Example 2, N-(4-((dimethylamino)methyl)phenyl)-3,3′-dimethoxy-[1,1′-biphenyl]-4-amine]",7.2,233,,18
"COc1cccc(-c2ccc(Nc3ccc(CN(C)C)cc3)c(OC)c2F)c1 [Example 3, N-(4-((dimethylamino)methyl)phenyl)-2-fluoro-3,3′-dimethoxy-[1,1′-biphenyl]-4-amine]",4.5,177,,26
"COc1cc(-c2ccc(Nc3ccc(CN(C)C)cc3)cc2)ccc1F [Example 4, N-(4-((dimethylamino)methyl)phenyl)-4′-fluoro-3′-methoxy-[1,1′-biphenyl]-4-amine]",,80,,24
"COc1cc(-c2ccc(Nc3ccc(CN(C)C)cc3)cc2)cc(F)c1F [Example 5, N-(4-((dimethylamino)methyl)phenyl)-3′,4′-difluoro-5′-methoxy-[1,1′-biphenyl]-4-amine]",,127,,33
"COc1cc(F)cc(-c2ccc(Nc3ccc(CN(C)C)cc3)cc2)c1 [Example 6, N-(4-((dimethylamino)methyl)phenyl)-3′-fluoro-5′-methoxy-[1,1′-biphenyl]-4-amine]",,245,,22
"COc1cc(C)cc(-c2ccc(Nc3ccc(CN(C)C)cc3)cc2)c1 [Example 7, N-(4-((dimethylamino)methyl)phenyl)-3′-methoxy-5′-methyl-[1,1′-biphenyl]-4-amine]",,264,,6
"COc1cccc(-c2cccc(CC3(C(=O)NCCn4ccnc4)CCOCC3)c2)c1 [PPIN-2, reference compound]",,,does not affect DLD-1 viability,
"N-(3-((2,6-dimethylmorpholino)methyl)phenyl)-3′-methoxy-[1,1′-biphenyl]-4-amine [Example 13]",,43,,9
